Experiment [1] concerns prostate cancer cell line (PC-3). Briefly: MTT cytotoxicity assay. The format is cell-based, human. The note with it: Homo sapiens. As to the method: The MTT method for monitoring in vitro cytotoxicity was used with multiwell plates. Three human cell lines, namely prostate cancer cell line (PC-3), renal cancer cell line (UO-31), and breast cancer cell line (MCF-7) were obtained from the American Type Culture Collection ATCC, Manassas, VA, USA). The cells were trypsinized and seeded in 96 well plates with a density of 1.2 − 1.8 × 10,000 cells/well for 24 h at 37 °C. After treating the cells with five concentrations of compound 5c (0.01, 0.1, 1, 10, 100 µM), an MTT solution (Sigma Co., St. Louis, MO, USA) (5 mg/mL in phosphate buffer solution) was applied to each well and […]. The plates were cultivated in 5% CO2 for 4 h at 37 °C. Successively, the remaining formazan crystals were dissolved in 100 µl of DMSO, and the absorbance was determined with the ROBONIK P2000 spectrophotometer at a wavelength of 570 nm. The obtained values were analysed using Gen5 software (BioTek, UK). The proliferation percentage in each treated cell line was standardised based on their control wells. Both tests have been conducted in triplicate. The IC50 values were calculated using sigmoidal dose-response curve fitting models. […] Each test included a blank containing a complete medium without cells.
For orientation: Tetrazolium assays rely on reduction of a dye to a coloured formazan, in cell work by metabolically active cells.

Experiment [2] deals with CYP17 enzyme. Briefly: CYP17 enzyme ELISA in mice prostate cancer model. Particulars: 5 mg/kg i.p., 5 days a week, ELISA of tissue (Mice testis). The format is in vivo. As for the experimental part:
(§1) A total of 16 mice from the TRAMP/FVB background ([…], male, average 45 days, average weight […], mice with prostate cancer) were taken and divided into 2 groups with 8 animals in each group. One group of mice was given a drug in 0.2 ml of DMSO and phosphate-buffered saline (1:10) ratio (5 mg/kg body weight, i.p., 5 days a week). The control group animals were treated with 0.2 ml of DMSO and phosphate-buffered saline (1:10) ratio. A total of eight mice, four animals from each group, were examined at 13 weeks of age, and the remaining animals from each group were examined at 20 weeks for prostate tumour development. Treatment was stopped 24 h before killing the animals.
BioSource 2704060 96 assay kit is a sandwich enzyme immunoassay for in vitro quantitative measurement of CYP17 enzyme activity in mouse tissue homogenates, cell lysates, cell culture supernatant, and other biological fluids. Tested tissues were rinsed in ice-cold PBS to remove excess blood and weighed before homogenisation. The tissues were minced and homogenised in fresh lysis buffer with a glass homogeniser. (catalog: IS007, different lysis buffer needs to be chosen based on subcellular location of the target protein) (w:v = 1:20–1:50, e.g. 1 ml lysis buffer is added in 20–50 mg tissue sample) The resulting suspension was sonicated with an ultrasonic cell disrupter till the solution was clarified. The homogenates were centrifuged for 5 min at 10,000 × g, and the supernatant was collected. An Aliquot was assayed and stored at ≤ −20 °C.
The assay sample and standard were incubated together with CYP-HRP conjugate in an appropriate number of microplates pre-coated with an antibody specific for the CYP17 enzyme for 1 h. After the incubation period, the wells were decanted and washed five times. The wells were then incubated with a substrate for the HRP enzyme. […] Colour intensity was measured spectrophotometrically at 450 nm in a microplate reader. […]
Assay procedures: Wells for a standard, blank, and sample were prepared. […] The absorbance was measured immediately at 450 nm.
Background: In an ELISA, binding on a coated surface is turned into a signal by an enzyme label.

Experiment [3] has as its system plasma testosterone. Briefly: Testosterone ELISA assay in mice prostate cancer model. Format: in vivo. The note with it: 5 mg/kg i.p., 5 days a week, ELISA, 5 mg/kg. As to the method:
as §1
The BioVendor mouse/rat testosterone ELISA assay is a competitive immunoassay for the measurement of testosterone in rat and mouse serum or plasma based on the principle of competitive binding. An unknown amount of testosterone present in the sample (plasma or serum) and a known amount of testosterone conjugated to horseradish peroxidase compete for the binding sites of testosterone antiserum coated to the wells of a microplate. The sample was incubated with the microplate for 1 h, then washed four times. The HRP substrate solution was added followed by the stop solution. Colour change has been observed, and the optical density was measured at 450 nm.
Assay procedures: Sufficient number of microplate wells were prepared to accommodate standard and samples in duplicates. The standard, sample, and control (10 µL each) were dispensed with new disposable tips into appropriate wells. Incubation buffer 100 µL was dispensed into each well. Afterward, enzyme conjugate (50 µL) was added to each well and incubated for 60 min at room temperature on a microplate mixer. The content of the wells was discarded, and the wells were rinsed 4 times with diluted wash solution (300 µL per well). The substrate solution (200 µL) was added to each well and incubated in the dark without shaking for 30 min. The reaction was stopped by adding a stop solution (2 N hydrochloric acid solution, 50 µL) to each well. The absorbance of each well was determined at 450 nm.

The test system of experiment [4] is CYP17. The note with it: Figure 1, known CYP17 inhibitors; cited from earlier work.
In experiment [5] the test system is WI-38 human cell line. The experiment is described as follows: In vitro cytotoxicity on WI-38 human cell line (MTT). Format: cell-based. Particulars: WI-38 normal human cell line. As to the method: Cell Line cells were obtained from American Type Culture Collection and were cultured using DMEM (Invitrogen/Life Technologies) supplemented with 10% FBS (Hyclone), 10 µg/ml of insulin (Sigma), and 1% penicillin-streptomycin. All of the other chemicals and reagents were obtained from Sigma or Invitrogen. Plate cells were incubated (cells density 1.2–1.8 × 10,000 cells/well) in a volume of 100 µL complete growth medium and 100 ul of the tested compound per well in a 96-well plate for 24 h before the MTT assay. The cultures were removed from the incubator into a laminar flow hood or other sterile work area followed by the addition of reconstituted MTT in an amount equal to 10% of the culture medium volume, then incubated for an additional 2 h. After the incubation period, cultures were removed from the incubator, and the resulted formazan crystals were dissolved by adding an amount of MTT solubilisation solution [M-8910] equal to the original culture medium volume, then the absorbance at a wavelength of 570 nm was measured. Finally, the IC50 of the tested compound compared to the reference was calculated using GraphPad Prism software.

The mark [6] stands for this setting: listed as Abireratone reference.
The mark [7] stands for this setting: listed as abiraterone reference.

Data on eight compounds can be found in PMC8330742, “New benzothieno[2,3-c]pyridines as non-steroidal CYP17 inhibitors: design, synthesis, anticancer screening, apoptosis induction, and in silico ADME profile studies” (Journal of Enzyme Inhibition and Medicinal Chemistry, 2021).

With `C[C@]12CC[C@H](O)CC1=CC[C@@H]1[C@@H]2CC[C@]2(C)C(c3cccnc3)=CC[C@@H]12` [Abiraterone, abiraterone, reference compound], the IC50 (usually the concentration at which inhibition is half-maximal) in experiment [1] is 8300 nM; in experiment [4] it was 2 nM. The “CYP17 enzyme aver. conc.” value in experiment [2] (setting [6]) is 10.72 nM; in experiment [2] (setting [7]) it was 10.72 ± 0.17 nM. In addition, the “Plasma testosterone aver. conc.” value was found to be 13.79 nM in experiment [3] (setting [6]) and 13.79 ± 0.33 nM in experiment [3] (setting [7]). Consider `CNC(=O)c1ccc(N2C(=S)N(c3cnc(C#N)c(C(F)(F)F)c3)C(=O)C23CCC3)cc1F` [Apalutamide, apalutamide], for which the IC50 in experiment [4] was 15 nM. On to `Cc1ccncc1N1CCN(c2ccnc(Cl)c2)C1=O` [CFG920], for which the IC50 in experiment [4] was 23 nM. In the case of `C[C@]12CC[C@H](O)CC1=CC[C@@H]1[C@@H]2CC[C@]2(C)C(n3cnc4ccccc43)=CC[C@@H]12` [Galeterone], the IC50 in experiment [4] is 300 nM. With `Oc1ccc2sc3c(c2c1)CCN(Cc1cccnc1)C3` [VIc], in experiment [4], the IC50 was 20.9 nM. For `N#Cc1ccc2sc3c(c2c1)CCN(Cc1cccnc1)C3` [VId], the IC50 in experiment [4] was 257 nM. As for `c1ccc2c(c1)[nH]c1cc(Cc3cnc[nH]3)ccc12` [YM-116], the IC50 in experiment [4] was 228 nM. On to `CN[C@@H]1C[C@H]2O[C@@](C)([C@@H]1OC)n1c3ccccc3c3c4c(c5c6ccccc6n2c5c31)C(=O)NC4` [staurosporine, reference compound], for which the IC50 was found to be 5100 nM in experiment [1] and 19200 nM in experiment [5].
